Legend:
[1] = system: ELAM-1; assay: Adhesion of ELAM-transfected COS cells to glycolipids adsorbed to PVC microtiter wells or resolved on TLC plates (controlled detachment force); format: cell-based, human; details: ELAM-transfected COS cells as probes
Method: The invention also includes a method of assaying candidate ligands for their ability to adhere to ELAM-1. The method comprises attaching candidate ligands to a substrate surface and then contacting the substrate surface thereon with recombinant cells, that are genetically engineered to express high levels of ELAM-1, for a sufficient time to allow the cells to adhere to the substrate bearing the candidate ligand. […] Candidate ligands which adhere to ELAM-1 are determined via the labels on the cells. Such molecules are isolated, characterized, and their structure specifically identified. Accordingly, the invention also includes glycolipid ligands which can be isolated via such an assay procedure.
COS cells, expressing membrane-bound ELAM-1, were metabolically radiolabeled with ^32 PO4 and used as probes in two assay systems to screen for recognition of glycolipids. In the first, glycolipids were adsorbed to the bottoms of PVC microtiter wells, while in the second they were resolved on TLC plates. […]

[2] = system: ELAM-1; assay: Inhibition by carbohydrates of ELAM-transfected COS cell adhesion to glycolipids; format: cell-based, human; details: for inhibition of cell adhesion to glycolipids: at 100 μg/ml, glycolipids eluted from DEAE-Sepharose with 5 mM potassium acetate; for inhibition of adhesion of ELAM-1 transfected COS cells to sialylated glycolipids: glycolipids resolved on TLC plates or adsorbed on PVC microtiter wells, concentration not given
Description: Radiolabeled COS cells expressing cell surface ELAM-1 were used as probes to screen human leukocyte-derived glycolipids. ELAM-1 transfected COS cells adhered to a subset of sialylated glycolipids which were resolved on TLC plates or adsorbed on PVC microtiter wells. Adhesion to these glycolipids required calcium, but was not inhibited by heparin, chondroitin sulfate, keratin sulfate, or yeast phosphomannan (PPME).
COS cells, expressing membrane-bound ELAM-1, were metabolically radiolabeled with ^32 PO4 and used as probes in two assay systems to screen for recognition of glycolipids. In the first, glycolipids were adsorbed to the bottoms of PVC microtiter wells, while in the second they were resolved on TLC plates. In both assays these glycolipids were probed for their ability to support adhesion of ELAM-transfected COS cells, untransfected COS cells, or COS cells transfected with a plasmid containing an irrelevant cDNA, under conditions of controlled detachment force (see Swank-Hill, P., et al., Anal. Biochem. (1987) 183:27; and Blackburn, C. C., et al., J. Biol. Chem. (1986) 261:2873 each of which is incorporated herein by reference to disclose the details of such assaying methodology).
The material not retained on the column and in fractions eluted by step-wise increases in salt concentration (from 5 mM to 250 mM potassium acetate in methanol) were screened for cell adhesion.

CC(=O)N[C@H]1[C@H]([C@H](O)[C@H](O)CO)O[C@@](O[C@H]2[C@@H](O)[C@@H](CO)O[C@@H](O[C@H]3[C@H](O[C@@H]4O[C@@H](C)[C@@H](O)[C@@H](O)[C@@H]4O)[C@@H](NC(C)=O)C(O)O[C@@H]3CO)[C@@H]2O)(C(=O)O)C[C@@H]1O (stereo partly drawn) [Neu NAc α2-3Gal-β1-4(Fuc α1-3)-GlcNAc]
recognition by / binding to ELAM-1 [1]: effectively bind to ELAM-1

chondroitin sulfate
inhibition of cell adhesion to glycolipids [2]: not inhibited | inhibition of adhesion of ELAM-1 transfected COS cells to sialylated glycolipids [2]: not inhibited

heparin
inhibition of cell adhesion to glycolipids [2]: not inhibited | inhibition of adhesion of ELAM-1 transfected COS cells to sialylated glycolipids [2]: not inhibited

keratin sulfate
inhibition of cell adhesion to glycolipids [2]: not inhibited | inhibition of adhesion of ELAM-1 transfected COS cells to sialylated glycolipids [2]: not inhibited

yeast phosphomannan
inhibition of cell adhesion to glycolipids [2]: not inhibited | inhibition of adhesion of ELAM-1 transfected COS cells to sialylated glycolipids [2]: not inhibited
